Measurements: PubChem BioAssay AID292 (DTP/NCI, 2004)
Where “and” joins values, the source holds several entries; their conditions need not be identical. Equal entries are not always repeated. Toxic doses and inconclusive results are not listed.

Tested on: B6C3F1 mice, ip Sarcoma M5076, median survival T/C
Assay: NCI In Vivo Anticancer Drug Screen. Data for tumor model Sarcoma M5076 (intraperitoneal) in B6C3F1 mice
Conditions: endpoint: median survival time, schedule: Q04DX004 (ip), higher = longer survival
Outline: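 Antitumour effect is judged in tumour-bearing mice by comparing survival after compound dosing against vehicle-only animals, reported as T/C.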

[1] = dose: 75.0 mg/kg/injection, vehicle: saline with Tween-80
[2] = dose: 150.0 mg/kg/injection, vehicle: saline with Tween-80
[3] = dose: 300.0 mg/kg/injection, vehicle: saline with Tween-80
[4] = dose: 75.0 mg/kg/injection, vehicle: Klucel (hydroxypropylcellulose) (HPC)
[5] = dose: 150.0 mg/kg/injection, vehicle: Klucel (hydroxypropylcellulose) (HPC)
[6] = dose: 600.0 mg/kg/injection, vehicle: Klucel (hydroxypropylcellulose) (HPC)
[7] = dose: 50.0 mg/kg/injection, vehicle: Klucel (hydroxypropylcellulose) (HPC)
[8] = dose: 100.0 mg/kg/injection, vehicle: Klucel (hydroxypropylcellulose) (HPC)
[9] = dose: 200.0 mg/kg/injection, vehicle: Klucel (hydroxypropylcellulose) (HPC)
[10] = dose: 100.0 mg/kg/injection, vehicle: saline with Tween-80
[11] = dose: 37.5 mg/kg/injection, vehicle: saline with Tween-80
[12] = dose: 200.0 mg/kg/injection, vehicle: saline with Tween-80
[13] = dose: 400.0 mg/kg/injection, vehicle: saline with Tween-80
[14] = dose: 400.0 mg/kg/injection, vehicle: Klucel (hydroxypropylcellulose) (HPC)
[15] = dose: 800.0 mg/kg/injection, vehicle: Klucel (hydroxypropylcellulose) (HPC)

O=C1CN2CCN3CC(=O)NC(=O)[C@H]3[C@H]2C(=O)N1
T/C (dose: 28.13 mg/kg/injection, vehicle: saline with Tween-80): 101 % of control
T/C (dose: 56.25 mg/kg/injection, vehicle: saline with Tween-80): 98 % of control
T/C (dose: 112.5 mg/kg/injection, vehicle: saline with Tween-80): 93 % of control
T/C (dose: 225.0 mg/kg/injection, vehicle: saline with Tween-80): 92 % of control
T/C (dose: 450.0 mg/kg/injection, vehicle: saline with Tween-80): 91 % of control

O=c1c2cc3ccccc3cc2c(=O)n2n1CC=CC2
T/C (dose: 20.31 mg/kg/injection, vehicle: Klucel (hydroxypropylcellulose) (HPC)): 100 % of control
T/C (dose: 40.63 mg/kg/injection, vehicle: Klucel (hydroxypropylcellulose) (HPC)): 99 % of control
T/C (dose: 81.25 mg/kg/injection, vehicle: Klucel (hydroxypropylcellulose) (HPC)): 99 % of control
T/C (dose: 162.5 mg/kg/injection, vehicle: Klucel (hydroxypropylcellulose) (HPC)): 99 % of control
T/C (dose: 325.0 mg/kg/injection, vehicle: Klucel (hydroxypropylcellulose) (HPC)): 99 % of control

Cc1ccc(-c2c([N+](=O)[O-])c3ccccn3c2[N+](=O)[O-])cc1
T/C [1]: 97 % of control
T/C [2]: 87 % of control
T/C [3]: 87 % of control
T/C (dose: 600.0 mg/kg/injection, vehicle: saline with Tween-80): 101 % of control

COc1ccc(-n2c(SCC(=O)NC(=O)Nc3ccccc3)nc3c(Br)cc(Br)cc3c2=O)cc1
T/C (dose: 37.5 mg/kg/injection, vehicle: Klucel (hydroxypropylcellulose) (HPC)): 91 % of control
T/C [4]: 93 % of control
T/C [5]: 89 % of control
T/C [6]: 90 % of control

C=Cc1cc(OC)c2c(c1)c(=O)oc1c2cc(OC)c2c(O)ccc(C3OC(C(C)O)C(O)C3O)c21 (configuration not stated)
T/C [7]: 109 % of control
T/C [8]: 115 % of control
T/C [9]: 110 % of control

CCC(=O)[O][Bi]([c]1ccccc1)[c]1ccccc1
T/C (dose: 3.0 mg/kg/injection, vehicle: Klucel (hydroxypropylcellulose) (HPC)): 101 % of control
T/C (dose: 6.0 mg/kg/injection, vehicle: Klucel (hydroxypropylcellulose) (HPC)): 98 % of control
T/C (dose: 12.0 mg/kg/injection, vehicle: Klucel (hydroxypropylcellulose) (HPC)): 102 % of control
T/C (dose: 24.0 mg/kg/injection, vehicle: Klucel (hydroxypropylcellulose) (HPC)): 89 % of control

Cc1ccc(C(=O)NC2C(=O)NC(C(C)C)C(=O)N3CCCC3C(=O)N(C)CC(=O)N(C)C(C(C)C)C(=O)OC2C)c2c1Oc1c(c(C(=O)NC3C(=O)NC(C(C)C)C(=O)N4CCCC4C(=O)N(C)CC(=O)N(C)C(C(C)C)C(=O)OC3C)c3nc(-c4ccccc4)c(=O)oc3c1C)N2 (configuration not stated)
T/C (dose: 0.25 mg/kg/injection, vehicle: water): 101 % of control and 113 % of control
T/C (dose: 0.5 mg/kg/injection, vehicle: water): 99 % of control
T/C (dose: 1.0 mg/kg/injection, vehicle: water): 114 % of control

Cc1nnc2c3nccnc3c(Cl)nn12
T/C (dose: 15.0 mg/kg/injection, vehicle: saline with Tween-80): 102 % of control
T/C (dose: 30.0 mg/kg/injection, vehicle: saline with Tween-80): 98 % of control
T/C (dose: 60.0 mg/kg/injection, vehicle: saline with Tween-80): 101 % of control
T/C (dose: 120.0 mg/kg/injection, vehicle: saline with Tween-80): 108 % of control

NS(=O)(=O)OCCCCCCCOS(N)(=O)=O
T/C (dose: 25.0 mg/kg/injection, vehicle: saline with Tween-80): 124 % of control
T/C [10]: 185 % of control

O=S(=O)(O)C1=CC(=N\Cl)/C=CC/1=N/Cl
T/C [11]: 104 % of control
T/C [1]: 104 % of control
T/C [2]: 106 % of control
T/C [3]: 108 % of control

Cn1cnc([N+](=O)[O-])c1SCC(=O)O
T/C [4]: 92 % of control
T/C [5]: 101 % of control
T/C (dose: 300.0 mg/kg/injection, vehicle: Klucel (hydroxypropylcellulose) (HPC)): 98 % of control
T/C [6]: 93 % of control
T/C (dose: 1200.0 mg/kg/injection, vehicle: Klucel (hydroxypropylcellulose) (HPC)): 92 % of control

CN(C)C(=O)Nc1ccc(Cl)cc1
T/C (dose: 25.0 mg/kg/injection, vehicle: suspension in saline): 107 % of control
T/C (dose: 50.0 mg/kg/injection, vehicle: suspension in saline): 94 % of control and 105 % of control and 113 % of control
T/C (dose: 100.0 mg/kg/injection, vehicle: suspension in saline): 91 % of control and 102 % of control and 104 % of control
T/C (dose: 200.0 mg/kg/injection, vehicle: suspension in saline): 92 % of control and 97 % of control and 113 % of control
T/C (dose: 400.0 mg/kg/injection, vehicle: suspension in saline): 95 % of control and 98 % of control and 99 % of control

BrC[P+](CBr)(CBr)CBr
T/C (dose: 15.63 mg/kg/injection, vehicle: saline with Tween-80): 107 % of control and 115 % of control
T/C (dose: 125.0 mg/kg/injection, vehicle: saline with Tween-80): 186 % of control

CCOC(=O)c1cc(-c2ccccc2)c(=O)c(OC)nc1-c1ccccc1
T/C (dose: 18.75 mg/kg/injection, vehicle: saline with Tween-80): 87 % of control
T/C [11]: 95 % of control
T/C [1]: 93 % of control
T/C [2]: 90 % of control

N[C@@H](C[C@H]1CCC(=O)[C@@H]2O[C@H]12)C(=O)O
T/C (dose: 50.0 mg/kg/injection, vehicle: saline): 97 % of control
T/C (dose: 100.0 mg/kg/injection, vehicle: saline): 106 % of control
T/C (dose: 200.0 mg/kg/injection, vehicle: saline): 117 % of control
T/C (dose: 400.0 mg/kg/injection, vehicle: saline): 115 % of control

OC1OCC(COc2ccc(Cl)cc2)OC1O (configuration not stated)
T/C (dose: 50.0 mg/kg/injection, vehicle: saline with Tween-80): 103 % of control
T/C [10]: 114 % of control
T/C [12]: 93 % of control
T/C [13]: 104 % of control

O=c1[nH]c(=O)n(C2CC(O)C(CO)O2)cc1C(F)(F)F (configuration not stated)
T/C [10]: 113 % of control and 114 % of control
T/C [12]: 109 % of control and 113 % of control
T/C [13]: 110 % of control and 112 % of control
T/C (dose: 800.0 mg/kg/injection, vehicle: saline with Tween-80): 116 % of control
T/C (dose: 1600.0 mg/kg/injection, vehicle: saline with Tween-80): 116 % of control

NC(C(=O)O)C1=CCCCCC1 (configuration not stated)
T/C (dose: 16.25 mg/kg/injection, vehicle: Klucel (hydroxypropylcellulose) (HPC)): 100 % of control
T/C (dose: 32.5 mg/kg/injection, vehicle: Klucel (hydroxypropylcellulose) (HPC)): 111 % of control
T/C (dose: 65.0 mg/kg/injection, vehicle: Klucel (hydroxypropylcellulose) (HPC)): 104 % of control
T/C (dose: 130.0 mg/kg/injection, vehicle: Klucel (hydroxypropylcellulose) (HPC)): 95 % of control
T/C (dose: 260.0 mg/kg/injection, vehicle: Klucel (hydroxypropylcellulose) (HPC)): 100 % of control

O=C(NCc1ccccc1)C1C(=O)C(=O)N(Cc2ccccc2)C1=O (configuration not stated)
T/C [7]: 92 % of control
T/C [8]: 102 % of control
T/C [9]: 100 % of control
T/C [14]: 100 % of control
T/C [15]: 96 % of control

CC(=O)C1C(=O)C(=O)N(c2ccc(Cl)cc2)C1=O (configuration not stated)
T/C [7]: 111 % of control
T/C [8]: 103 % of control
T/C [9]: 99 % of control
T/C [14]: 93 % of control
T/C [15]: 92 % of control
